Test results as given in publication PMC11981944 (Nature, 2025).

Assays:
[1] = tested on: SARS-CoV-2 rWuhan M(P132S); type: cell-based
[2] = target: SARS-CoV-2 M protein (membrane protein), purified recombinant (SARS-CoV-2, UniProt P0DTC5); experiment: cryo-EM structure

| Molecule | susceptibility of M(P132S) virus (in words) [1] | binding result [2] |
| --- | --- | --- |
| N#C[C@@]1(c2ccc3c(N)ncnn23)O[C@H](CO)[C@@H](O)[C@H]1O [GS-441524] | remained fully susceptible | – |
| CC(C)(C)[C@H](NC(=O)C(F)(F)F)C(=O)N1C[C@H]2[C@@H]([C@H]1C(=O)N[C@H](C#N)C[C@@H]1CCNC1=O)C2(C)C [Nirmatrelvir] | remained fully susceptible | – |
| Fab-B (Fab, V domains shown) VH: EVQLQQSGPELVKPGASMKISCKTSGYSFTGYTMNWVKQSHGKNLEWIGLINPYNGDTSYNQKFKGKATLTVDKSSSTAYMELLSLTSEDSAVYYCEVINTYWGQGTLVTVSA VL: DIVMTQSPASLAVSLGQRATISCKASQSIDYDGDNYMNWYQQKPGQPPKLLIYTTSNLESGIPARFSGSGSGTDFTLNIHPVEEGDAATYYCQQNNEDPYTFGGGTKLEIK | – | binds |
